The record followed here is ChEMBL document CHEMBL1137587, “MCH-R1 antagonists based on an arginine scaffold: SAR studies on the amino-terminus” (Bioorg Med Chem Lett, 2007).

For orientation: IC50 means the midpoint of a concentration-inhibition curve.

The target in the assay is Melanin-concentrating hormone receptor 1 (Homo sapiens, UniProt Q99705). The experiment in a line: Functional antagonism of MCH-R1 expressed in HEK293 cells. The class given is cell-based.
Chain of Melanin-concentrating hormone receptor 1 (Q99705 whole entry): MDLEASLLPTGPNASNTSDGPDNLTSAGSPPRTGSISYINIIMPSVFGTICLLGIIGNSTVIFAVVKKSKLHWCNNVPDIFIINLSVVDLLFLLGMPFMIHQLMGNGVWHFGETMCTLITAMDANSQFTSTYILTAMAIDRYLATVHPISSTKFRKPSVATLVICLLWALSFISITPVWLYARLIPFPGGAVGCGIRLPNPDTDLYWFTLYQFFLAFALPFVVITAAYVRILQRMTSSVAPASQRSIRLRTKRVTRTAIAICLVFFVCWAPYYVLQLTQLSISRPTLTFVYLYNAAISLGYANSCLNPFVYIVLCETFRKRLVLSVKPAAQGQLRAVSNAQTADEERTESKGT

Turning to `N=C(N)NCCC[C@@H](NC(=O)c1cccc2ccccc12)C(=O)NCc1ccc(C(F)(F)F)cc1`, the IC50 was 1800 nM.

Turning to `N=C(N)NCCC[C@@H](NC(=O)c1cc2ccccc2o1)C(=O)NCc1ccc(C(F)(F)F)cc1`, half-maximal inhibition (IC50) was put at 313 nM.

Regarding `N=C(N)NCCC[C@@H](NC(=O)C(c1ccccc1)c1ccccc1)C(=O)NCc1ccc(C(F)(F)F)cc1`, half-maximal inhibition (IC50) was put at 112 nM.

As to `N=C(N)NCCC[C@@H](NC(=O)c1ccnc2ccccc12)C(=O)NCc1ccc(C(F)(F)F)cc1`, it took 1030 nM to reach half-maximal inhibition (IC50). This IC50 is about 9.2-fold higher than that of the compound before.

`N=C(N)NCCC[C@@H](NC(=O)c1cc2ccccc2[nH]1)C(=O)NCc1ccc(C(F)(F)F)cc1` registered an IC50 of 20 nM.

`N=C(N)NCCC[C@@H](NC(=O)C1c2ccccc2Oc2ccccc21)C(=O)NCc1ccc(C(F)(F)F)cc1`: the IC50 was 4 nM.

The compound `N=C(N)NCCC[C@@H](NC(=O)Cc1cccc2ccccc12)C(=O)NCc1ccc(C(F)(F)F)cc1` gave an IC50 of 243 nM.

As to `COc1ccc2[nH]c(C(=O)N[C@H](CCCNC(=N)N)C(=O)NCc3ccc(C(F)(F)F)cc3)cc2c1`, the half-inhibitory concentration (IC50) worked out at 78 nM.

Take `N=C(N)NCCC[C@@H](NC(=O)Cc1csc2ccccc12)C(=O)NCc1ccc(C(F)(F)F)cc1`: half-maximal inhibition (IC50) required 1010 nM.

`COc1ccc2cc(C(=O)N[C@H](CCCNC(=N)N)C(=O)NCc3ccc(C(F)(F)F)cc3)ccc2c1` gave an IC50 of 443 nM.

`N=C(N)NCCC[C@@H](NC(=O)C1c2ccccc2Cc2ccccc21)C(=O)NCc1ccc(C(F)(F)F)cc1` showed an IC50 of 763 nM. Against the preceding compound, the IC50 is about 1.7-fold higher.

The compound `N=C(N)NCCC[C@@H](NC(=O)c1cc2ccccc2s1)C(=O)NCc1ccc(C(F)(F)F)cc1` registered an IC50 of 45 nM.

`N=C(N)NCCC[C@@H](NC(=O)c1cc2cc(F)ccc2[nH]1)C(=O)NCc1ccc(C(F)(F)F)cc1` gave a half-inhibitory concentration (IC50) of 25 nM.

`N=C(N)NCCC[C@@H](NC(=O)c1ccc2ccccc2c1)C(=O)NCc1ccc(C(F)(F)F)cc1` returned an IC50 of 212 nM. This IC50 lies about 8.5-fold higher than the previous one.

Regarding `N=C(N)NCCC[C@@H](NC(=O)c1cc2ccccc2cn1)C(=O)NCc1ccc(C(F)(F)F)cc1`, the midpoint of inhibition, the IC50, lay at 1810 nM.

Consider `N=C(N)NCCC[C@@H](NC(=O)Cc1cc2ccccc2[nH]1)C(=O)NCc1ccc(C(F)(F)F)cc1`, for which the 50% inhibitory concentration (IC50) came out at 512 nM.

`N=C(N)NCCC[C@@H](NC(=O)c1csc2ccccc12)C(=O)NCc1ccc(C(F)(F)F)cc1` had an IC50 of 952 nM.

Take `COc1cccc2cc(C(=O)N[C@H](CCCNC(=N)N)C(=O)NCc3ccc(C(F)(F)F)cc3)oc12`: the 50% inhibitory concentration (IC50) worked out at 622 nM.

The compound `N=C(N)NCCC[C@@H](NC(=O)c1cnc2ccccc2c1)C(=O)NCc1ccc(C(F)(F)F)cc1` registered an IC50 of 96 nM. This IC50 lies about 6.5-fold lower than the previous one.

The compound `N=C(N)NCCC[C@@H](NC(=O)C1c2ccccc2-c2ccccc21)C(=O)NCc1ccc(C(F)(F)F)cc1` yielded an IC50 of 5 nM. This IC50 is about 19-fold lower than that of the compound before.

For `N=C(N)NCCC[C@@H](NC(=O)c1ccc2ccccc2n1)C(=O)NCc1ccc(C(F)(F)F)cc1`, the midpoint of inhibition, the IC50, lay at 904 nM.

On to `N=C(N)NCCC[C@@H](NC(=O)c1ccc(F)c2ccccc12)C(=O)NCc1ccc(C(F)(F)F)cc1`, for which it took 311 nM to reach half-maximal inhibition (IC50).
